Measurements reported in ChEMBL document CHEMBL3046848, “Synthesis and biological evaluation of novel series of thieno[2,3-d]pyrimidine derivatives as anticancer and antimicrobial agents” (2013).

Columns and labels:
Assay type in all cases: functional
MDA-MB-468 = experiment: Anticancer activity against Homo sapiens (human) MDA-MB-468 cells after 48 hr by SRB assay; conditions: MDA-MB-468, 48 h
U-251 = experiment: Anticancer activity against Homo sapiens (human) U251 cells after 48 hr by SRB assay; conditions: U-251, 48 h
Candida albicans = experiment: Antimicrobial activity against Candida albicans ATCC2091 assessed as diameter of growth inhibition zone at 1 mg/ml after 48 hr by agar cup diffusion method; conditions: ATCC2091, 48 h, read-out: IZ
BT-549 = experiment: Growth inhibition of Homo sapiens (human) BT549 cells at 10 uM after 48 hr by SRB assay; conditions: BT-549, 48 h, read-out: GI
OVCAR-5 = experiment: Anticancer activity against Homo sapiens (human) OVCAR5 cells after 48 hr by SRB assay; conditions: OVCAR-5, 48 h
A549 [1] = experiment: Anticancer activity against Homo sapiens (human) A549/ATCC cells after 48 hr by SRB assay; conditions: A549, 48 h
CAKI-1 = experiment: Anticancer activity against Homo sapiens (human) CAKI-1 cells after 48 hr by SRB assay; conditions: CAKI-1, 48 h
M14 = experiment: Growth inhibition of Homo sapiens (human) M14 cells at 10 uM after 48 hr by SRB assay; conditions: M14, 48 h, read-out: GI
HCT-15 = experiment: Growth inhibition of Homo sapiens (human) HCT15 cells at 10 uM after 48 hr by SRB assay; conditions: HCT-15, 48 h, read-out: GI
UO-31 = experiment: Anticancer activity against Homo sapiens (human) UO31 cells after 48 hr by SRB assay; conditions: UO-31, 48 h
786-0 = experiment: Anticancer activity against Homo sapiens (human) 786-0 cells after 48 hr by SRB assay; conditions: 786-0, 48 h
A498 = experiment: Anticancer activity against Homo sapiens (human) A498 cells after 48 hr by SRB assay; conditions: A498, 48 h
IGROV-1 = experiment: Growth inhibition of Homo sapiens (human) IGROV1 cells at 10 uM after 48 hr by SRB assay; conditions: IGROV-1, 48 h, read-out: GI
TK-10 = experiment: Growth inhibition of Homo sapiens (human) TK10 cells at 10 uM after 48 hr by SRB assay; conditions: TK-10, 48 h, read-out: GI
RXF 393 = experiment: Growth inhibition of Homo sapiens (human) RXF393 cells at 10 uM after 48 hr by SRB assay; conditions: RXF 393, 48 h, read-out: GI
MDA-MB-435 = experiment: Anticancer activity against Homo sapiens (human) MDA-MB-435 cells after 48 hr by SRB assay; conditions: MDA-MB-435, 48 h
NCI-H226 = experiment: Growth inhibition of Homo sapiens (human) NCI-H226 cells at 10 uM after 48 hr by SRB assay; conditions: NCI-H226, 48 h, read-out: GI
HL-60(TB) = experiment: Anticancer activity against Homo sapiens (human) HL-60(TB) cells after 48 hr by SRB assay; conditions: HL-60, 48 h
A549 [2] = experiment: Growth inhibition of Homo sapiens (human) A549/ATCC cells at 10 uM after 48 hr by SRB assay; conditions: A549, 48 h, read-out: GI
Pseudomonas aeruginosa = experiment: Antimicrobial activity against Pseudomonas aeruginosa ATCC9027 assessed as diameter of growth inhibition zone at 1 mg/ml after 24 hr by agar cup diffusion method; conditions: ATCC9027, 24 h, read-out: IZ
KM12 = experiment: Growth inhibition of Homo sapiens (human) KM12 cells at 10 uM after 48 hr by SRB assay; conditions: KM12, 48 h, read-out: GI
PC-3 = experiment: Growth inhibition of Homo sapiens (human) PC3 cells at 10 uM after 48 hr by SRB assay; conditions: PC-3, 48 h, read-out: GI
OVCAR-8 = experiment: Anticancer activity against Homo sapiens (human) OVCAR8 cells after 48 hr by SRB assay; conditions: OVCAR-8, 48 h
RPMI-8226 = experiment: Growth inhibition of Homo sapiens (human) RPMI8226 cells at 10 uM after 48 hr by SRB assay; conditions: RPMI-8226, 48 h, read-out: GI
SW-620 = experiment: Anticancer activity against Homo sapiens (human) SW620 cells after 48 hr by SRB assay; conditions: SW-620, 48 h
MOLT-4 = experiment: Anticancer activity against Homo sapiens (human) MOLT4 cells after 48 hr by SRB assay; conditions: MOLT-4, 48 h
NCI-H23 = experiment: Growth inhibition of Homo sapiens (human) NCI-H23 cells at 10 uM after 48 hr by SRB assay; conditions: NCI-H23, 48 h, read-out: GI
SR = experiment: Growth inhibition of Homo sapiens (human) SR cells at 10 uM after 48 hr by SRB assay; conditions: read-out: GI
EKVX = experiment: Growth inhibition of Homo sapiens (human) EKVX cells at 10 uM after 48 hr by SRB assay; conditions: read-out: GI
SK-MEL-28 = experiment: Growth inhibition of Homo sapiens (human) SK-MEL-28 cells at 10 uM after 48 hr by SRB assay; conditions: SK-MEL-28, 48 h, read-out: GI
MDA-MB-231 = experiment: Growth inhibition of Homo sapiens (human) MDA-MB-231/ATCC cells at 10 uM after 48 hr by SRB assay; conditions: MDA-MB-231, 48 h, read-out: GI
UACC-257 = experiment: Growth inhibition of Homo sapiens (human) UACC257 cells at 10 uM after 48 hr by SRB assay; conditions: UACC-257, 48 h, read-out: GI
HCT-116 = experiment: Growth inhibition of Homo sapiens (human) HCT116 cells at 10 uM after 48 hr by SRB assay; conditions: HCT-116, 48 h, read-out: GI
[3] = read-out: LC50 (the source's name)

Cc1c(C(N)=O)sc2nc(C)n(/N=c3\scc(-c4ccccc4)n3Cc3ccccc3)c(=O)c12 was tested. Which GI50 (MDA-MB-468) did it give?
The GI50 was 2.65 µM.

And the TGI (MDA-MB-468)?
The TGI was greater than 100 µM.

What about the CC50 (MDA-MB-468; [3]) of the same compound?
Its CC50 is greater than 100 µM.

What about the GI50 (U-251) of the same compound?
Its GI50 is 3.31 µM.

What about the TGI (U-251) of the same compound?
The TGI was greater than 100 µM.

What about the CC50 (U-251; [3]) of the same compound?
Its CC50 is greater than 100 µM.

And the zone of inhibition at 1000 µg/mL (Candida albicans)?
The zone of inhibition at 1000 µg/mL was 17 mm.

What about the inhibition of growth at 10 µM (BT-549) of the same compound?
Its inhibition of growth at 10 µM is 107%.

What about the GI50 (OVCAR-5) of the same compound?
The GI50 was 4.33 µM.

What about the TGI (OVCAR-5) of the same compound?
The TGI was greater than 100 µM.

What about the CC50 (OVCAR-5; [3]) of the same compound?
Its CC50 is greater than 100 µM.

What about the GI50 (A549 [1]) of the same compound?
The GI50 was 3.79 µM.

And the TGI (A549 [1])?
Its TGI is greater than 100 µM.

And the CC50 (A549 [1]; [3])?
Its CC50 is greater than 100 µM.

What about the GI50 (CAKI-1) of the same compound?
Its GI50 is 3.35 µM.

What about the TGI (CAKI-1) of the same compound?
Its TGI is greater than 100 µM.

And the CC50 (CAKI-1; [3])?
The CC50 was greater than 100 µM.

What about the inhibition of growth at 10 µM (M14) of the same compound?
The inhibition of growth at 10 µM was 63.6%.

What about the inhibition of growth at 10 µM (HCT-15) of the same compound?
The inhibition of growth at 10 µM was 85.1%.

And the GI50 (UO-31)?
Its GI50 is 1.66 µM.

What about the TGI (UO-31) of the same compound?
Its TGI is 7 µM.

What about the CC50 (UO-31; [3]) of the same compound?
The CC50 was greater than 100 µM.

What about the GI50 (786-0) of the same compound?
The GI50 was 3.82 µM.

And the TGI (786-0)?
The TGI was greater than 100 µM.

What about the CC50 (786-0; [3]) of the same compound?
Its CC50 is greater than 100 µM.

And the GI50 (A498)?
Its GI50 is 2.53 µM.

What about the TGI (A498) of the same compound?
The TGI was 8.97 µM.

And the CC50 (A498; [3])?
Its CC50 is greater than 100 µM.

What about the inhibition of growth at 10 µM (IGROV-1) of the same compound?
Its inhibition of growth at 10 µM is 89.1%.

And the inhibition of growth at 10 µM (TK-10)?
The inhibition of growth at 10 µM was 47.2%.

What about the inhibition of growth at 10 µM (RXF 393) of the same compound?
The inhibition of growth at 10 µM was 105%.

What about the GI50 (MDA-MB-435) of the same compound?
Its GI50 is 2.89 µM.

And the TGI (MDA-MB-435)?
Its TGI is 12.5 µM.

And the CC50 (MDA-MB-435; [3])?
Its CC50 is greater than 100 µM.

What about the inhibition of growth at 10 µM (NCI-H226) of the same compound?
Its inhibition of growth at 10 µM is 69.1%.

And the GI50 (HL-60(TB))?
Its GI50 is 6.68 µM.

What about the TGI (HL-60(TB)) of the same compound?
The TGI was greater than 100 µM.

What about the CC50 (HL-60(TB); [3]) of the same compound?
Its CC50 is greater than 100 µM.

What about the inhibition of growth at 10 µM (A549 [2]) of the same compound?
The inhibition of growth at 10 µM was 100%.

What about the zone of inhibition at 1000 µg/mL (Pseudomonas aeruginosa) of the same compound?
The zone of inhibition at 1000 µg/mL was 17 mm.

What about the inhibition of growth at 10 µM (KM12) of the same compound?
The inhibition of growth at 10 µM was 86.4%.

And the inhibition of growth at 10 µM (PC-3)?
Its inhibition of growth at 10 µM is 98%.

And the GI50 (OVCAR-8)?
Its GI50 is 3.49 µM.

What about the TGI (OVCAR-8) of the same compound?
The TGI was greater than 100 µM.

And the CC50 (OVCAR-8; [3])?
Its CC50 is greater than 100 µM.

And the inhibition of growth at 10 µM (RPMI-8226)?
Its inhibition of growth at 10 µM is 110%.

What about the GI50 (SW-620) of the same compound?
The GI50 was 3.16 µM.

What about the TGI (SW-620) of the same compound?
The TGI was greater than 100 µM.

What about the CC50 (SW-620; [3]) of the same compound?
The CC50 was greater than 100 µM.

What about the GI50 (MOLT-4) of the same compound?
Its GI50 is 24.6 µM.

What about the TGI (MOLT-4) of the same compound?
The TGI was greater than 100 µM.

What about the CC50 (MOLT-4; [3]) of the same compound?
The CC50 was greater than 100 µM.

And the inhibition of growth at 10 µM (NCI-H23)?
Its inhibition of growth at 10 µM is 79.5%.

And the inhibition of growth at 10 µM (SR)?
The inhibition of growth at 10 µM was 87.2%.

And the inhibition of growth at 10 µM (EKVX)?
The inhibition of growth at 10 µM was 107%.

And the inhibition of growth at 10 µM (SK-MEL-28)?
Its inhibition of growth at 10 µM is 51.8%.

And the inhibition of growth at 10 µM (MDA-MB-231)?
The inhibition of growth at 10 µM was 57%.

What about the inhibition of growth at 10 µM (UACC-257) of the same compound?
Its inhibition of growth at 10 µM is 95.2%.

What about the inhibition of growth at 10 µM (HCT-116) of the same compound?
The inhibition of growth at 10 µM was 70.9%.
